Tests used:
AMPK(r) = test: Millipore kinaseprofiler diversity array; format: biochemical, rat; conditions: 10 µM MS-0022
Procedure: Table 4 Kinase activity in presence of 10 µM MS-0022 in a kinaseprofiler diversity array. | column: Activity %

[1] = tested on: Hh pathway in Shh-L2 cells; test: Hh reporter assay in Shh-L2 cells; format: cell-based, mouse
Procedure: Shh-L2 cells were used as a Hh reporter cell line as described previously. Hh signaling was induced by Shh conditioned medium, 200 nM SAG (AH-Diagnostics) and ActOXS (a combination of 5 µM Hydroxycholesterol 20-alfa and 5 µM Hydroxycholesterol 22S (Sigma-Aldrich)). For Shh conditioned medium, Shh-PANC-1 cells were grown to confluence and switched to fresh medium. Shh conditioned medium was harvested after 48 hours, and was diluted to 50% in fresh DMEM before use. The clonal Shh-PANC-1 cell line was generated by stably transducing PANC-1 cells with virus containing medium from HEK293T cells that were transfected using a Virapower Lentiviral expression kit (Invitrogen). The vector was produced by removing GFP from a pLenti 6.2-vector, and inserting the mouse Shh cDNA sequence.
The calculations were performed with an online calculator using the formula: a exp (−bx) + c at the website; http://www.changbioscience.com/stat/ec50.html

PANC-1 xenograft = test: PANC-1 subcutaneous xenograft in CB17/SCID mice; format: in vivo, mouse
Procedure: (§1) Cells were lysed for RNA extraction after 48 or 72 hours of treatment. Total RNA from cultured cells or tumor tissue was isolated using the GeneElute miniprep kit (Sigma-Aldritch) following the manufacturer^'s instructions. cDNA was synthesized from the isolated mRNA using the Retroscript kit (Ambion), and real-time PCR was carried out using the SYBR Green PCR master mix (Stratagene) according to the manufacturer^'s instructions with an Mx3000P cycler (Stratagene). The relative concentrations of cDNA present in each sample were calculated by the MxPro software (Stratagene), normalized for GAPDH (mRNA from cells) or GUS (mRNA from tumors). For real time PCR primer sequences see Table 6. For the tumor tissue real time PCR, previously described human and mouse specific primers against GUSB, PTCH1 and GLI1were used.
For PANC-1 xenografts, 4–6 week old CB17/SCID mice were injected with 5×10^6 PANC-1 (n = 6 per group) cells in 200 µl PBS subcutaneously on day 1. IP treatment with 50 mg/kg MS-0022 began when median tumor size reached 25 mm^2 (day 27). MS-0022 was pulverized using a pestle, and was mixed into a stable suspension in water containing 1% Tween 80 (Sigma-Aldrich). Mice were treated with MS-0022 or solvent for a period of 30 days after initiation in a 5 day injection 2 day pause scheme, and tumor size was measured throughout using calipers (mm^2). After 30 days the mice were sacrificed and tumors dissected and weighed. The PANC-1 xenograft endpoint was taken two days after the last compound treatment.

GLI1 mRNA in PC-3 cells = test: Real time PCR of GLI1 mRNA in PC-3; format: cell-based, human; conditions: 48 hrs
Procedure: as §1

[2] = QD, IP at 50 mg/kg, 5 day injection/2 day pause, end of treatment, vs control solvent

Cc1cccn2cc(-c3ccc(NC(=O)c4ccccc4Br)cc3)nc12 [MS-0022, 2-bromo-N-(4-(8-methylimidazo[1,2-a]pyridin-2-yl)phenyl)benzamide]
Activity % (AMPK(r)): 98% | Hh pathway induction in Shh, SAG and ActOXS induced Shh-L2 cells ([1]; 5 µM, 48 hours, Shh, 200 nM SAG, ActOxs (5 µM+5 µM)): blocked Hh pathway induction | IC50 ([1]; Mus musculus, pathway inhibition in Shh induced Shh-L2 cells, 48 hours treatment): 100 nM | reduction in tumor volume, PANC-1 xenograft (PANC-1 xenograft; [2]): 38% | reduction in tumor weight, PANC-1 xenograft (PANC-1 xenograft; [2]): 33% | human (tumor) or mouse (stroma) Ptch1 or Gli1 mRNA levels in PANC-1 tumors (PANC-1 xenograft; endpoint of the experiment, 50 mg/kg IP): no statistically relevant difference | GLI1 mRNA levels, PC-3 (GLI1 mRNA in PC-3 cells): reduced GLI1 mRNA levels

Reference: publication PMC3115942 (PLoS ONE, 2011)
